Data published in patent publication US5766848A (Synaptic Pharmaceutical Corporation, priority 1994, dated 1998).

Key:
human GAT-3 = target: T1, human GAT-3 (Homo sapiens, UniProt P48066); assay: Inhibition of [3H]GABA uptake, human GAT-3 stable LM(tk-) cell line; assay type: cell-based; conditions: read-out: IC50, human GAT-3, inhibition of [3H]GABA uptake, Table 9, means ± S.E.M.
T1 construct: expressed in transfected cells
T1 sequence (P48066 1-632): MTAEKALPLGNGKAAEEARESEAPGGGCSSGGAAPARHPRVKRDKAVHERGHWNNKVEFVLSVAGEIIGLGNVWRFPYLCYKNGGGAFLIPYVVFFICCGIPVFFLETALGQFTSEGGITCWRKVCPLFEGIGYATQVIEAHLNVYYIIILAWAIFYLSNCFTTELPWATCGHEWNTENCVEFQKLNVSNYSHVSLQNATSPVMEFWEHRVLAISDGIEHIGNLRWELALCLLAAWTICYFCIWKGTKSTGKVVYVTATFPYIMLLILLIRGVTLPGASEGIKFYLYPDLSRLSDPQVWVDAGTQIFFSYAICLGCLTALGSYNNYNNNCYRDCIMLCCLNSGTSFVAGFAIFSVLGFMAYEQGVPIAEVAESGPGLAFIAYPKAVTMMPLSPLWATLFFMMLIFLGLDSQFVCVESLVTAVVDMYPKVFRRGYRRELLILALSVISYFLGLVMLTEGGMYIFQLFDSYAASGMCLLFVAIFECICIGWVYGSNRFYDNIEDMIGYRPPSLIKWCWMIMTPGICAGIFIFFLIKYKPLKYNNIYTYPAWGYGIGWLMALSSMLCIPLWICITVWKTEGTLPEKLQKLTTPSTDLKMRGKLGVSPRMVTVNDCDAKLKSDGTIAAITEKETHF
Protocol: (§1) Cells were grown under standard conditions (37° C., 5% CO2) in DMEM (Dulbecco's modified Eagles's medium; GIBCO, Grand Island, N.Y.).
(§2) Cells grown in 24-well plates were washed 3× with HEPES-buffered saline (HBS, in mM: NaCl, 150; HEPES, 20; CaCl2, 1; glucose, 10; KCl, 5; MgCl2 1; pH 7.4) and allowed to equilibrate on a 37° C. slide warmer. After 10 minutes the medium was removed and unlabeled drugs in HBS were added (450 μl/well). […] Plates were incubated at 37° C. for 10 minutes, then washed rapidly 3× with ice-cold HBS, using a 24-position plate washer (Brandel, Gaithersburg, Mass.; model PW-12). Cells were solubilized with 0.05% sodium deoxycholate/0.1N NaOH (0.25 ml/well), an aliquot neutralized with 1N HCl, and radioactivity was determined by scintillation counting. Protein was quantified in an aliquot of the solubilized cells using a BIO-RAD protein assay kit, according to the manufacturer's directions.
(§3) Competition curves were conducted in duplicate, using 10 concentrations of unlabeled drug. […] All data throughout the paper represent means±S.E.M.

human BGT-1 = target: T2, human BGT-1 (Homo sapiens, UniProt P48065); conditions: read-out: IC50, human BGT-1, inhibition of [3H]GABA uptake; Table 9; stable LM(tk-) cell line; means ± S.E.M.
T2 sequence (P48065 1-614 C10Y): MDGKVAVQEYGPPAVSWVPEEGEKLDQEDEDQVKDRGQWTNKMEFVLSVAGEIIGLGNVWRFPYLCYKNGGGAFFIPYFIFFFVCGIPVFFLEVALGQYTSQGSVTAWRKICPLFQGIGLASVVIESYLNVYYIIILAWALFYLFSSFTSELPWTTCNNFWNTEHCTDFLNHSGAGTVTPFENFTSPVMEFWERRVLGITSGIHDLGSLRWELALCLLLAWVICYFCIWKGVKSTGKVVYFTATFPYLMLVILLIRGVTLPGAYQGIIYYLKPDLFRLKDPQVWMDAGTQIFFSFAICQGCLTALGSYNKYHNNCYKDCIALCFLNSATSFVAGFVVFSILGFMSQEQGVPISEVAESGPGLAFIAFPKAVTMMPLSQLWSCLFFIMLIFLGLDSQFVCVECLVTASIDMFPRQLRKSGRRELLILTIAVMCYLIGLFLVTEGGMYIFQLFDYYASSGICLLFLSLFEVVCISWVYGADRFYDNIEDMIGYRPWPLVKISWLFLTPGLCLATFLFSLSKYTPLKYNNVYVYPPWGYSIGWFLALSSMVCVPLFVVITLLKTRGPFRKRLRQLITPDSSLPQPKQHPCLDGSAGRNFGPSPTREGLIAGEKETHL
Protocol: Cells were grown under standard conditions (37° C., 5% CO2) in Dulbecco's modified Eagles's medium (GIBCO, Grand Island, N.Y.).
After 10 minutes the medium was removed and unlabeled drugs in HBS were added (450 μl/well). […] Plates were incubated at 37° C. for 10 minutes, then washed rapidly 3× with ice-cold HBS, using a 24-position plate washer (Brandel, Gaithersburg, Mass.; model PW-12). Cells were solubilized with 0.05% sodium deoxycholate/0.1N NaOH (0.25 ml/well), an aliquot neutralized with 1N HCl, and radioactivity was determined by scintillation counting. Protein was quantified in an aliquot of the solubilized cells using a BIO-RAD protein assay kit, according to the manufacturer's directions.
Data Analysis: Competition curves were conducted in duplicate, using 10 concentrations of unlabeled drug. […] All data throughout the paper represent means±SEM.
as §1, §2, §3

human GAT-1 = human GAT-1 (Homo sapiens, UniProt P30531); conditions: read-out: IC50, human GAT-1, inhibition of [3H]GABA uptake
Protocol: as §1, §2, §3

[1] = literature reports; cited from earlier work
[2] = human volunteers (CI-966); clinical reports (Tiagabine); cited from earlier work

Chain of human GAT-1 (P30531 whole entry): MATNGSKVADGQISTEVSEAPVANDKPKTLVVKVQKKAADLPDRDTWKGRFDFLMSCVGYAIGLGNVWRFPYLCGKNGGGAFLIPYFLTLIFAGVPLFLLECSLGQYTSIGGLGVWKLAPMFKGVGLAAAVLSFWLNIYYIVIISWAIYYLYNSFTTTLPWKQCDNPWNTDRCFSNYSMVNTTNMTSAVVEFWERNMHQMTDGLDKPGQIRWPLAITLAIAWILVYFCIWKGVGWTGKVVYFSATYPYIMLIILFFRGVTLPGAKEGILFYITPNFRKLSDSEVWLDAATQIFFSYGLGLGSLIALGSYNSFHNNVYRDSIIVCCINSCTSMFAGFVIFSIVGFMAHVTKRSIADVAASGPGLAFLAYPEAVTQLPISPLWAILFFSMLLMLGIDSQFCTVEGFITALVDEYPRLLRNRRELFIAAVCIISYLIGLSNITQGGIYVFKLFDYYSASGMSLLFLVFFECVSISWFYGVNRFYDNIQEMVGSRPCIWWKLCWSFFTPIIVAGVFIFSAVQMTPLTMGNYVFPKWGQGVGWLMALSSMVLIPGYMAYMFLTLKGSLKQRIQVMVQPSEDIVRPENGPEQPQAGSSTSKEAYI

O=C(O)C1=CCCN(CCOC(c2ccc(C(F)(F)F)cc2)c2ccc(C(F)(F)F)cc2)C1 [CI-966, [1-[2-[bis4(trifluoromethyl)phenyl]methoxy]ethyl]-1,2,5,6-tetrahydro-3-pyridinecarboxylic acid]
IC50 (human GAT-3): 333 ± 76 µM
IC50 (human BGT-1): 300 ± 10 µM
IC50 (human GAT-1): 0.26 ± 0.05 µM
anticonvulsive activity in animals [1]: display anticonvulsive activity
severe adverse effects in humans [2]: Severe adverse effects were noted
